Assay results published in patent US20050208496A1, “Methods of testing for bronchial asthma or chronic obstructive pulmonary disease” (Genox Research, Inc., priority 2002, published 2005).

Tested on: respiratory epithelial cells

IL-13: human IL-13 (Peprotech, Inc.) added to the medium at 50 ng/mL to stimulate respiratory epithelial cells
CH25H (32363_at) expression, fold change upon IL-13 stimulation (lot 1, Day 3, IMM method): 8.9 fold
CTSC (133_at) expression, fold change upon IL-13 stimulation (lot 1, Day 3, IMM method): 4.7 fold
CXCL16 (44095_at) expression fold change (lot 1, Day 3, IMM method): 2.5 fold
DD96 (31610_at) expression, fold change upon IL-13 stimulation (lot 1, Day 3, IMM method): 11.4 fold
DDIT3 (39420_at) expression, fold change upon IL-13 stimulation (lot 1, Day 3, IMM method): 2.3 fold
DKFZP564O0823 (41402_at) expression, fold change upon IL-13 stimulation (lot 1, Day 3, IMM method): 6.7 fold
DKFZP566J091 (57197_at) expression fold change (lot 1, Day 3, IMM method): 8.2 fold
DPYD (38220_at) expression fold change upon IL-13 stimulation (lot 1, Day 3, IMM method): 7.5 fold
EMILIN-2 (51628_at) expression fold change (lot 1, Day 3, IMM method): 2.8 fold
FABP4 (38430_at) expression, fold change upon IL-13 stimulation (lot 1, Day 3, IMM method): 2.6 fold
FETUB (32620_at) expression fold change (lot 1, Day 3, IMM method): 4.1 fold
FLJ10261 (43366_at) expression fold change (lot 1, Day 3, IMM method): 8.2 fold
FLJ10261 (43963_at) expression fold change (lot 1, Day 3, IMM method): 6.6 fold
FLJ22693 (53777_at) expression fold change (lot 1, Day 3, IMM method): 2.1 fold
FUT10 (908_at) expression fold change upon IL-13 stimulation (lot 1, Day 3, IMM method): 4 fold
G1P3 (1358_s_at) expression, fold change upon IL-13 stimulation (lot 1, Day 3, IMM method): 7.1 fold
GBP5 (52615_at) expression fold change (lot 1, Day 3, IMM method): 2.5 fold
HDAC9 (37483_at) expression fold change upon IL-13 stimulation (lot 1, Day 3, IMM method): 3.1 fold
HLA-F (37420_i_at) expression, fold change upon IL-13 stimulation (lot 1, Day 3, IMM method): 3 fold
HLA-F (49203_f_at) expression fold change (lot 1, Day 3, IMM method): 3.1 fold
HS3ST1 (41556_s_at) expression fold change upon IL-13 stimulation (lot 1, Day 3, IMM method): 2.2 fold
IFI27 (425_at) expression, fold change upon IL-13 stimulation (lot 1, Day 3, IMM method): 4.5 fold
IFI27 (48864_at) expression fold change (lot 1, Day 3, IMM method): 4 fold
IFI35 (464_s_at) expression, fold change upon IL-13 stimulation (lot 1, Day 3, IMM method): 9.6 fold
IFI44 (37641_at) expression, fold change upon IL-13 stimulation (lot 1, Day 3, IMM method): 8 fold
IFIT1 (915_at) expression, fold change upon IL-13 stimulation (lot 1, Day 3, IMM method): 9.9 fold
IFIT1 (32814_at) expression, fold change upon IL-13 stimulation (lot 1, Day 3, IMM method): 7.6 fold
IFIT4 (38584_at) expression, fold change upon IL-13 stimulation (lot 1, Day 3, IMM method): 10.4 fold
IFITM1 (675_at) expression, fold change upon IL-13 stimulation (lot 1, Day 3, IMM method): 19.9 fold
IL13RA2 (1016_s_at) expression fold change upon IL-13 stimulation (lot 1, Day 3, IMM method): 5.1 fold
IL19 (47855_at) expression fold change (lot 1, Day 3, IMM method): 9.1 fold
ILIRL1 (40322_at) expression, fold change upon IL-13 stimulation (lot 1, Day 3, IMM method): 2.6 fold
IRF7 (36412_s_at) expression fold change (lot 1, Day 3, IMM method): 2.5 fold
ISG15 (1107_s_at) expression, fold change upon IL-13 stimulation (lot 1, Day 3, IMM method): 8.2 fold
ISG15 (38432_at) expression, fold change upon IL-13 stimulation (lot 1, Day 3, IMM method): 27.9 fold
ISG20 (33304_at) expression, fold change upon IL-13 stimulation (lot 1, Day 3, IMM method): 2.4 fold
KIAA0537 (33787_at) expression, fold change upon IL-13 stimulation (lot 1, Day 3, IMM method): 5.8 fold
KIAA1268 (57050_at) expression fold change (lot 1, Day 3, IMM method): 2.8 fold
KRT16 (601_s_at) expression fold change (lot 1, Day 3, IMM method): 4.6 fold
LAMP3 (37168_at) expression, fold change upon IL-13 stimulation (lot 1, Day 3, IMM method): 3.6 fold
LOC57118 (51085_at) expression fold change (lot 1, Day 3, IMM method): 3 fold
LOC64116 (40456_at) expression, fold change upon IL-13 stimulation (lot 1, Day 3, IMM method): 2.9 fold
MDA5 (51920_at) expression fold change (lot 1, Day 3, IMM method): 5.2 fold
MMP7 (668_s_at) expression, fold change upon IL-13 stimulation (lot 1, Day 3, IMM method): 2.2 fold
MX2 (879_at) expression fold change (lot 1, Day 3, IMM method): 8 fold
MXI (37014_at) expression fold change (lot 1, Day 3, IMM method): 10.6 fold
NK4 (39119_s_at) expression fold change upon IL-13 stimulation (lot 1, Day 3, IMM method): 2 fold
NOS2A (1948_f_at) expression fold change upon IL-13 stimulation (lot 1, Day 3, IMM method): 4.3 fold
OAF (39695_at) expression, fold change upon IL-13 stimulation (lot 1, Day 3, IMM method): 3.8 fold
OAS1 (38388_at) expression fold change upon IL-13 stimulation (lot 1, Day 3, IMM method): 5.5 fold
OAS1 (38389_at) expression fold change upon IL-13 stimulation (lot 1, Day 3, IMM method): 5.3 fold
OAS2 (39263_at) expression fold change upon IL-13 stimulation (lot 1, Day 3, IMM method): 2.9 fold
OSF-2 (1451_s_at) expression fold change upon IL-13 stimulation (lot 1, Day 3, IMM method): 8.8 fold
PAK2 (1560_g_at) expression, fold change upon IL-13 stimulation (lot 1, Day 3, IMM method): −2.1 fold
PLS1 (39951_at) expression fold change (lot 1, Day 3, IMM method): 2.9 fold
PLSCR1 (32775_r_at) expression fold change upon IL-13 stimulation (lot 1, Day 3, IMM method): 2.6 fold
PMCH (32005_at) expression fold change (lot 1, Day 3, IMM method): 3.3 fold
PSMB9 (38287_at) expression fold change upon IL-13 stimulation (lot 1, Day 3, IMM method): 2.3 fold
RASGRP1 (33291_at) expression fold change (lot 1, Day 3, IMM method): 2.6 fold
RIG-1 (59215_at) expression fold change (lot 1, Day 3, IMM method): 8.7 fold
SCYB10 (431_at) expression fold change upon IL-13 stimulation (lot 1, Day 3, IMM method): 3.9 fold
SCYB11 (35061_at) expression fold change upon IL-13 stimulation (lot 1, Day 3, IMM method): 7.9 fold
SECTM1 (41045_at) expression, fold change upon IL-13 stimulation (lot 1, Day 3, IMM method): 5.2 fold
SERPINB4 (1549_s_at) expression fold change (lot 1, Day 3, IMM method): 67.4 fold
SERPINB6 (34789_at) expression fold change (lot 1, Day 3, IMM method): 2.6 fold
SIAT1 (41352_at) expression fold change upon IL-13 stimulation (lot 1, Day 3, IMM method): 13.1 fold
SLC26A4, pendrin (36376_at) expression fold change (lot 1, Day 3, IMM method): 25.6 fold
SSI-1 (41592_at) expression, fold change upon IL-13 stimulation (lot 1, Day 3, IMM method): 5.8 fold
STAT1 (32860_g_at) expression fold change (lot 1, Day 3, IMM method): 2.4 fold
STAT1 (33338_at) expression fold change (lot 1, Day 3, IMM method): 5.7 fold
TGFB2 (1262_s_at) expression fold change upon IL-13 stimulation (lot 1, Day 3, IMM method): 2 fold
TGM2 (38404_at) expression fold change upon IL-13 stimulation (lot 1, Day 3, IMM method): 5 fold
TSPAN-3 (38612_at) expression, fold change upon IL-13 stimulation (lot 1, Day 3, IMM method): 2.5 fold
UBE2L6 (40505_at) expression fold change upon IL-13 stimulation (lot 1, Day 3, IMM method): 4.2 fold
UFD1L (811_at) expression, fold change upon IL-13 stimulation (lot 1, Day 3, IMM method): 2.3 fold
WARS (38121_at) expression fold change upon IL-13 stimulation (lot 1, Day 3, IMM method): 2.9 fold
diubiquitin (39959_at) expression, fold change upon IL-13 stimulation (lot 1, Day 3, IMM method): 14.4 fold
AA045020 (44676_at) expression change (lot 1, Day 7, AI): −2.9
AA053401 (56234_r_at) expression change (lot 1, Day 7, AI): −3.5
AA059445 46293_at expression change (lot 1, Day 7, AI): −3.7
AA059458 (65626_at) expression change (lot 1, Day 7, AI): −3.4
AA079839 (69289_at) expression change (lot 1, Day 7, AI): −2.2
AA151265 (60939_i_at) expression change (lot 1, Day 7, AI): −2.6
AA151265 (60940_r_at) expression change (lot 1, Day 7, AI): −5.9
AA160156 (47578_at) expression change (lot 1, Day 7, AI): −4.2
AA203423 (65699_at) expression change (lot 1, Day 7, AI): −2.6
AA369887 (87539_i_at) expression change (lot 1, Day 7, AI): −3.6
AA398155 (48999_at) expression change (lot 1, Day 7, AI): −2
AA400080 (57282_at) expression change (lot 1, Day 7, AI): −4.2
AA422178 (53747_at) expression change (lot 1, Day 7, AI): −2.8
AA428312 (83988_at) expression change (lot 1, Day 7, AI): −2
AA442232 (59109_at) expression change (lot 1, Day 7, AI): −2.3
AA456099 (59567_at) expression change (lot 1, Day 7, AI): −2.2
AA772055 46104_at expression change (lot 1, Day 7, AI): −3
AA779895 59136_at expression change (lot 1, Day 7, AI): −2.4
ABCC5 1932_at expression change (lot 1, Day 7, AI): −3.6
AF052107 38262_at expression change (lot 1, Day 7, AI): −4.1
AI050855 (64285_at) expression change (lot 1, Day 7, AI): −3.6
AI432375 (49819_at) expression change (lot 1, Day 7, AI): −4.5
AI669212 55436_at expression change (lot 1, Day 7, AI): −2.5
AI740855 (83076_at) expression change (lot 1, Day 7, AI): −2
AI761647 40191_s_at expression change (lot 1, Day 7, AI): −3
AI770116 (70124_at) expression change (lot 1, Day 7, AI): −2.3
AI798733 (64163_at) expression change (lot 1, Day 7, AI): −3.6
AI829641 (84270_at) expression change (lot 1, Day 7, AI): −3.3
AI923984 33546_at expression change (lot 1, Day 7, AI): −4.6
